Results taken from ChEMBL document CHEMBL1148934, “Antitubercular sesterterpenes from the Thai sponge Brachiaster sp” (J Nat Prod, 2004).
In brackets after ≈: the same amount, converted by molar mass.

What was measured:
[1] = system: Mycobacterium tuberculosis; assay: Antitubercular activity against Mycobacterium tuberculosis H37Ra ATCC 25177 after 4 days by microtiter plate alamar blue technique; assay type: functional, organism-based; conditions: 96 h
[2] = system: MCF7; assay: Cytotoxicity against human MCF7 cells by SRB assay; assay type: functional, cell-based
[3] = system: HT-29; assay: Cytotoxicity against human HT29 cells by SRB assay; assay type: functional, cell-based
[4] = system: HeLa; assay: Cytotoxicity against human HeLa cells by SRB assay; assay type: functional, cell-based
[5] = system: KB; assay: Cytotoxicity against human KB cells by SRB assay; assay type: functional, cell-based
[6] = system: HT-29; assay: Cytotoxicity against human HT29 cells at 10 uM by SRB assay; assay type: functional
[7] = system: HeLa; assay: Cytotoxicity against human HeLa cells at 10 uM by SRB assay; assay type: functional
[8] = system: KB; assay: Cytotoxicity against human KB cells at 10 uM by SRB assay; assay type: functional
[9] = system: MCF7; assay: Cytotoxicity against human MCF7 cells at 10 uM by SRB assay; assay type: functional
[10] = system: Mycobacterium tuberculosis; assay: Antimycobacterial activity against Mycobacterium tuberculosis H37Rv; assay type: functional

| SMILES | MIC [1] [µM] | IC50 [2] [µM] | IC50 [3] [nM] | IC50 [4] [nM] | IC50 [5] [nM] | Activity [6] [%] | Activity [7] [%] | Activity [8] [%] | IC50 [1] [µM] | Activity [9] [%] | MIC [10] [µg/mL] |
| --- | --- | --- | --- | --- | --- | --- | --- | --- | --- | --- | --- |
| CC1(C)CCC[C@]2(C)[C@H]3C[C@@H](O)[C@]4(C)[C@H]5COC(=O)C5=CC[C@H]4[C@]3(C)CC[C@@H]12 | 16 (≈ 6.19 µg/mL) | 0.32 | 910 | 1990 | 750 |  |  |  |  |  |  |
| CC(=O)OCC1=CC(=O)O[C@@H]1C/C=C(\CC/C=C(\C)CCC1=C(C)CCCC1(C)C)COC(C)=O | 51 (≈ 24.8 µg/mL) | 9.34 |  |  |  | 80 | 80 | 80 |  |  |  |
| CC(=O)O[C@@H]1C[C@@H]2[C@@]3(C)CCCC(C)(C)[C@@H]3CC[C@@]2(C)[C@@H]2CC=C3C(=O)OC[C@@H]3[C@@]12C |  |  | 2340 | 5490 | 3010 |  |  |  | 117 |  |  |
| CC(=O)O[C@@H]1OC(=O)C=C1[C@H]1CC=C(CC/C=C(\C)CCC2=C(C)CCCC2(C)C)[C@H](O)O1 | 7 (≈ 3.21 µg/mL) | 0.26 | 760 | 1680 | 630 |  |  |  |  |  |  |
| CC(=O)O[C@@H]1OC(=O)C2=CC[C@H]3[C@]4(C)CC[C@H]5C(C)(C)CCC[C@]5(C)[C@H]4CC[C@]3(C)[C@H]21 | 4 (≈ 1.71 µg/mL) |  |  |  |  | 80 | 80 | 80 |  | 80 |  |
| CC(=O)OCC1=CC(=O)O[C@@H]1C/C=C(/CC/C=C(\C)CCC1=C(C)CCCC1(C)C)COC(C)=O | 26 (≈ 12.7 µg/mL) | 5.99 |  |  |  | 80 | 80 | 80 |  |  |  |
| CC(=O)O[C@@H]1OC=C2[C@@H](OC(C)=O)C[C@H]3[C@]4(C)CC[C@H]5C(C)(C)CCC[C@]5(C)[C@H]4C[C@@H](OC(C)=O)[C@]3(C)[C@H]21 [HETERONEMIN ACETATE] | 6 | 6.45 |  |  |  | 80 | 80 | 80 |  |  |  |
| CC(=O)O[C@@H]1OC=C2[C@@H](OC(C)=O)C[C@H]3[C@]4(C)CC[C@H]5C(C)(C)CCC[C@]5(C)[C@H]4C[C@@H](O)[C@]3(C)[C@H]21 [HETERONEMIN] | 3 (≈ 1.47 µg/mL) | 0.29 | 390 | 450 | 370 |  |  |  |  |  | 6.25 (≈ 12.8 µM) |
| NNC(=O)c1ccncc1 [ISONIAZID] | 0.29 (≈ 0.0398 µg/mL) |  |  |  |  |  |  |  |  |  |  |
| NC[C@H]1O[C@H](O[C@H]2[C@H](O)[C@@H](O[C@H]3O[C@H](CO)[C@@H](O)[C@H](N)[C@H]3O)[C@H](N)C[C@@H]2N)[C@H](O)[C@@H](O)[C@@H]1O [KANAMYCIN] | 3.5 (≈ 1.7 µg/mL) |  |  |  |  |  |  |  |  |  |  |
